Patent US3978211A, “Lipiarmycin and its preparation” (Gruppo Lepetit S.p.A., priority 1973, dated 1976)
≈ marks a conversion by molar mass, not a printed value. Residues, ends and D or L forms follow the SMILES beside them.

Tests used:
[1] = system: Staphylococcus aureus ATCC 6538 resistant to bacitracin; assay: Minimum inhibitory concentration, resistant strain (Table II); type: cell-based; details: S. aureus ATCC 6538 resistant to bacitracin
Text: (§1) Lipiarmycin is also active against strains which are resistant to other antibiotics which are widely used in chemotherapeutic practice. As a representative example, in the following table the minimum inhibitory concentrations (M.I.C.), γ/ml., of lipiarmycin against Staphylococcus aureus strains resistant to several antibiotics are reported.

[2] = system: Staphylococcus aureus ATCC 6538 resistant to cephaloridine; assay: as above; type: cell-based
Text: as §1

[3] = system: Staphylococcus aureus ATCC 6538 resistant to chloramphenicol; assay: as above; type: cell-based
Text: as §1

[4] = system: Staphylococcus aureus ATCC 6538 resistant to erythromycin; assay: as above; type: cell-based
Text: as §1

[5] = system: Staphylococcus aureus ATCC 6538 resistant to novobiocin; assay: as above; type: cell-based
Text: as §1

[6] = system: Staphylococcus aureus ATCC 6538 resistant to oleandomycin; assay: as above; type: cell-based
Text: as §1

[7] = system: Staphylococcus aureus ATCC 6538 resistant to penicillin; assay: as above; type: cell-based
Text: as §1

[8] = system: Staphylococcus aureus ATCC 6538 resistant to streptomycin; assay: as above; type: cell-based
Text: as §1

[9] = system: Staphylococcus aureus ATCC 6538 resistant to tetracycline; assay: as above; type: cell-based
Text: as §1

[10] = system: Staphylococcus aureus ATCC 6538 resistant to streptothricin; assay: as above; type: cell-based; details: S. aureus ATCC 6538 resistant to streptothricin
Text: as §1

[11] = system: Staphylococcus aureus ATCC 6538 resistant to neomycin; assay: as above; type: cell-based; details: S. aureus ATCC 6538 resistant to neomycin
Text: as §1

[12] = pH 7
mice = assay: Toxicity, LD50 i.p. in mice
[13] = system: Streptococcus hemolyticus C203; assay: Minimal inhibitory concentration; type: cell-based
Text: (§2) The antibiotic substance of the invention is active against bacteria, and in particular against the following microorganisms at the indicated concentrations.

[14] = system: Mycobacterium tub. H37Rv ATCC 9360; assay: Minimal inhibitory concentration; type: cell-based
Text: as §2

[15] = system: Staphylococcus aureus Tour; assay: Minimal inhibitory concentration; type: cell-based
Text: as §2

[16] = system: Mycoplasma gallisepticum H 21 C.Z.B.; assay: Minimal inhibitory concentration; type: cell-based
Text: as §2

[17] = system: Diplococcus pneumoniae UC 41; assay: Minimal inhibitory concentration; type: cell-based
Text: as §2

[18] = system: Staphylococcus aureus ATCC 6538; assay: Minimal inhibitory concentration; type: cell-based
Text: as §2

[19] = system: Streptococcus mutans ATCC 25175; assay: Minimal inhibitory concentration; type: cell-based
Text: as §2

[20] = type: physicochemical; details: methyl cellosolve
Text: An ionizable function is spectrophotometrically evidenced with pKa (in methyl cellosolve): 6.8

[21] = Staphylococcus aureus, ATCC6538, read-out: M.I.C. of other antibiotics

Compound: CC[C@H](C)[C@H](N)C1=N[C@H](C(=O)N[C@@H](CC(C)C)C(=O)N[C@H](CCC(=O)O)C(=O)N[C@H](C(=O)N[C@H]2CCCCNC(=O)[C@H](CC(N)=O)NC(=O)[C@@H](CC(=O)O)NC(=O)[C@H](Cc3cnc[nH]3)NC(=O)[C@@H](Cc3ccccc3)NC(=O)[C@H]([C@@H](C)CC)NC(=O)[C@@H](CCCN)NC2=O)[C@@H](C)CC)CS1 [bacitracin, reference compound] (HELM PEPTIDE1{[CC[C@H](C)[C@H](N)C1=N[C@H](C(=O)[*:2])CS1].L.[dE].I.K.[NCCC[C@@H](N[*:1])C(=O)[*:2]].I.[dF].H.[dD].N}$PEPTIDE1,PEPTIDE1,5:R3-11:R2$$$V2.0)
- M.I.C. of other antibiotics [1]: > 100 µg/mL

Compound: O=C(Cc1cccs1)N[C@@H]1C(=O)N2C(C(=O)[O-])=C(C[n+]3ccccc3)CS[C@H]12 [cephaloridine, reference compound]
- MIC [2, 21]: > 100 µg/mL

Compound: O=C(N[C@H](CO)[C@H](O)c1ccc([N+](=O)[O-])cc1)C(Cl)Cl [chloramphenicol, reference compound]
- MIC [3, 21]: > 100 µg/mL

Compound: CC[C@H]1OC(=O)[C@H](C)[C@@H](O[C@H]2C[C@@](C)(OC)[C@@H](O)[C@H](C)O2)[C@H](C)[C@@H](O[C@@H]2O[C@H](C)C[C@H](N(C)C)[C@H]2O)[C@](C)(O)C[C@@H](C)C(=O)[C@H](C)[C@@H](O)[C@]1(C)O [erythromycin, reference compound]
- MIC [4, 21]: > 100 µg/mL

Compound: CO[C@@H]1[C@@H](OC(N)=O)[C@@H](O)[C@H](Oc2ccc3c(O)c(NC(=O)c4ccc(O)c(CC=C(C)C)c4)c(=O)oc3c2C)OC1(C)C [novobiocin, reference compound]
- MIC [5, 21]: > 100 µg/mL

Compound: CO[C@H]1C[C@H](O[C@H]2[C@H](C)[C@@H](O[C@@H]3O[C@H](C)C[C@H](N(C)C)[C@H]3O)[C@@H](C)C[C@@]3(CO3)C(=O)[C@H](C)[C@@H](O)[C@@H](C)[C@@H](C)OC(=O)[C@@H]2C)O[C@@H](C)[C@@H]1O [oleandomycin, reference compound]
- MIC [6, 21]: 50 µg/mL (≈ 72.7 µM)

Compound: CC1(C)S[C@@H]2[C@H](NC(=O)Cc3ccccc3)C(=O)N2[C@H]1C(=O)O [penicillin, reference compound]
- MIC [7, 21]: > 100 µg/mL

Compound: [H]/N=C(/N)N[C@H]1[C@H](O)[C@@H](O)[C@H](O[C@@H]2O[C@@H](C)[C@](O)(C=O)[C@H]2O[C@@H]2O[C@@H](CO)[C@H](O)[C@@H](O)[C@@H]2NC)[C@@H](N/C(N)=N\[H])[C@@H]1O [streptomycin, reference compound]
- MIC [8, 21]: > 100 µg/mL

Compound: CN(C)[C@@H]1C(O)=C(C(N)=O)C(=O)[C@@]2(O)C(O)=C3C(=O)c4c(O)cccc4[C@@](C)(O)[C@H]3C[C@@H]12 [tetracycline, reference compound]
- MIC [9, 21]: > 100 µg/mL

Compound: lipiarmycin
- M.I.C. of lipiarmycin ([4]; S. aureus ATCC 6538 resistant to erythromycin): 5 µg/mL
- M.I.C. of lipiarmycin ([9]; S. aureus ATCC 6538 resistant to tetracycline): 5 µg/mL
- M.I.C. of lipiarmycin ([5]; S. aureus ATCC 6538 resistant to novobiocin): 2 µg/mL
- M.I.C. of lipiarmycin ([6]; S. aureus ATCC 6538 resistant to oleandomycin): 5 µg/mL
- M.I.C. of lipiarmycin ([7]; S. aureus ATCC 6538 resistant to penicillin): 2 µg/mL
- M.I.C. of lipiarmycin ([3]; S. aureus ATCC 6538 resistant to chloramphenicol): 2 µg/mL
- M.I.C. of lipiarmycin [10]: 5 µg/mL
- M.I.C. of lipiarmycin [1]: 5 µg/mL
- M.I.C. of lipiarmycin ([2]; S. aureus ATCC 6538 resistant to cephaloridine): 5 µg/mL
- M.I.C. of lipiarmycin [11]: 2 µg/mL
- M.I.C. of lipiarmycin ([8]; S. aureus ATCC 6538 resistant to streptomycin): 5 µg/mL
- Solubility [12]: Sparingly soluble to insoluble
- LD50 (mice): about 500 mg./kg.
- MINIMAL INHIBITORY CONCENTRATION [13]: 10 µg/mL
- MINIMAL INHIBITORY CONCENTRATION [14]: 50 µg/mL
- MINIMAL INHIBITORY CONCENTRATION ([15]; Staphylococcus aureus Tour with 10 percent bovine serum): 10 µg/mL
- MINIMAL INHIBITORY CONCENTRATION ([15]; Staphylococcus aureus Tour, without serum): 2 µg/mL
- MINIMAL INHIBITORY CONCENTRATION [16]: 50 µg/mL
- MINIMAL INHIBITORY CONCENTRATION [17]: 50 µg/mL
- MINIMAL INHIBITORY CONCENTRATION [18]: 2 µg/mL
- MINIMAL INHIBITORY CONCENTRATION [19]: 0.5 µg/mL
- pKa [20]: 6.8

Compound: neomycin [reference compound]
- M.I.C. of other antibiotics [11]: > 100 µg/mL

Compound: streptothricin [reference compound]
- M.I.C. of other antibiotics [10]: > 100 µg/mL
